Square brackets hold non-standard residues; d marks the D form. Ends that are not written are not given here. Tyr(3-NO2) = N[C@@H](Cc1ccc(O)c([N+](=O)[O-])c1)C(=O)O
What follows are sequences tested on splenocytes of mice immunized with N-4YSyn (assay: 3H-thymidine in vitro proliferation assay of splenocytes stimulated with antigen or test peptide). Settings: splenocytes from N-4YSyn/CFA immunized mice; 30 μg/ml antigen or peptide, 5 days; vs media control; no response in PBS immunized mice.
Assay type: cell-based, mice (C57BL/6J)
Description: B6 (H-2^b) mice were immunized with PBS or 50 μg of N-4YSyn (nitrated C-terminal 40 amino acid α-Syn fragment) in complete Freund's adjuvant (CFA) administered subcutaneously (s.c.). Seven days after primary immunization, mice were boosted with another 50 μg of antigen emulsified in IFA (Sigma-Aldrich). Seven days following their final immunizations, donor mice were sacrificed and single cell suspensions were prepared from the spleen.
Samples of pooled splenocytes were tested for their proliferative capacity by ^3H-thymidine incorporation after stimulation with either immunizing antigen or test peptide. Splenocytes were plated at a density of 2×10^6 cells/ml complete RPMI tissue culture media (RPMI 1640 supplemented with 10% fetal bovine serum (FBS), 2 mM L-glutamine, 10 mM HEPES, 1 mM sodium pyruvate, 1× nonessential aa, 55 μM 2-mercaptoethanol, 100 U/ml penicillin, and 100 μg/ml streptomycin (Mediatech Inc., Herndon, VA)). Splenocytes from PBS or N-4YSyn immunized mice were stimulated with 0 or 30 μg/ml of immunizing antigen N-4YSyn or 30 μg/ml of the non-nitrated or nitrated peptide indicated, and cultured at 37° C. for 5 days. Cells were pulsed with […] ^3H-thymidine/well for the final 18 hours of culture, harvested onto glass fiber plates, and counted by β-scintillation spectrometry (TopCount, Packard-PerkinElmer Instruments, Wellesley, MA).
To test immune responses to particular epitopes within N-α-Syn, mice were immunized with N-4YSyn or PBS emulsified in complete Freund's adjuvant (CFA). Seven days following the initial immunization, mice were boosted with their respective immunogens emulsified in incomplete Freund's adjuvant (IFA). Seven days later, mice were sacrificed and splencoytes were tested for antigen-specific T cell proliferative responses to N-4YSyn or peptide epitope (nitrated or non-nitrated; Table 1).

Row | Sequence | proliferative response (3H-thymidine incorporation)
1 | GILEDMPVDPGSEAY (GILEDMPVDPGSEA[Tyr(3-NO2)]; listed as Mus musculus) [Peptide 23, murine α-synuclein positions 111-125, nitrated tyrosine] | significant proliferative response
2 | GSEAYEMPSEEGYQD (GSEA[Tyr(3-NO2)]EMPSEEG[Tyr(3-NO2)]QD; listed as Mus musculus) [Peptide 25, murine α-synuclein positions 121-135, nitrated tyrosines] | significant proliferative response
3 | GYPQEGILEDMPVDP (G[Tyr(3-NO2)]PQEGILEDMPVDP; listed as Mus musculus) [Peptide 22, murine α-synuclein positions 106-120, nitrated tyrosine] | significant proliferative response
4 | MPVDPGSEAYEMPSE (MPVDPGSEA[Tyr(3-NO2)]EMPSE; listed as Mus musculus) [Peptide 24, murine α-synuclein positions 116-130, nitrated tyrosine] | significant proliferative response

Source: patent publication US12156912B2, “Methods and compositions for inhibiting diseases of the central nervous system” (Board of Regents of the University of Nebraska, priority 2012, dated 2024)
